Values quoted from earlier work in publication PMC13363528, “Structure–Activity Relationships of Pyrrolyl-Containing Diketo Acid and Non-Diketo Acid Derivatives as Inhibitors of SARS-CoV-2 nsp13-Associated Activities” (Molecules, 2026).

Biological target: SARS-CoV-2 nsp13 (Severe acute respiratory syndrome coronavirus 2, UniProt P0DTD1)
Settings: without BSA/TCEP; read-out: IC50 Unwinding

For `O=c1c(O)c(-c2ccc(O)cc2)oc2cc(O)cc(O)c12` [Kaempferol], the IC50 is listed as 760 ± 160 nM.
